Experimental data from ChEMBL document CHEMBL4483862, “Open-source discovery of chemical leads for next-generation chemoprotective antimalarials” (2018).
pIC50: −log10 of the molar value.

Tested on: Plasmodium berghei
Assay: Luciferase/luciferin-expressing antifolate-resistant parasites were used to infect a culture of HepG2 cells that were pre-incubated with compounds. Infected hepatocytes emit light due to the luciferase reaction. Assay results are presented as the percent inhibition of light emission compared to control. […]
Assay type: functional
Details: sporozoite; for IC90: read-out: LUCIFERASE INFECTION ASSAY - IC90
[1] = read-out: LUCIFERASE INFECTION ASSAY - IC50

Structure (SMILES)	IC90	also measured
O=C(Cc1ccsc1)Nc1nc(-c2ccccn2)cs1	8.87 µM	pIC50 (PBLUC_HILL_SLOPE 6.07, PBLUC_R_SQUARED 0.668, read-out: LUCIFERASE INFECTION ASSAY - IC50): 5.21
O=c1cc(O)c2c(=O)n3c4c(cccc4c2o1)CCC3	> 12.3 µM	pIC50 [1]: < 4.91
CC(C)c1ccc2c(c1)/C(=N/NC(=O)c1ccccc1F)C(=O)N2	0.084 µM	pIC50 (PBLUC_HILL_SLOPE 280, PBLUC_R_SQUARED 0.522, read-out: LUCIFERASE INFECTION ASSAY - IC50): 7.08
O=c1c2c3c(sc2nc(SCc2nc4ccc(Cl)cc4n2CCO)n1CC1CCCO1)CCC3 (stereo not given)	> 10 µM	pIC50 (FFLUC_HILL_SLOPE 13.3, FFLUC_R_SQUARED 0.41, read-out: LUCIFERASE INFECTION ASSAY - IC50): < 5.00
Cc1ccc(CNC(=O)c2ccc(CN3CCc4ccccc4C3)cc2)cc1	> 8.91 µM	pIC50 (PBLUC_HILL_SLOPE 3.55, PBLUC_R_SQUARED 0.838, read-out: LUCIFERASE INFECTION ASSAY - IC50): 5.22
COc1cc(/C=C/C(=O)Nc2ccc3c(c2)nc2n3CCCCC2)ccc1OS(=O)(=O)c1ccc(C)cc1	8.3 µM	pIC50 (HEPG2TOX_HILL_SLOPE 1.59, HEPG2TOX_R_SQUARED 0.591, PBLUC_HILL_SLOPE 1.96, PBLUC_R_SQUARED 0.277, read-out: LUCIFERASE INFECTION ASSAY - IC50): 5.57
O=C(CCC1CCCC1)N1CCC(c2nnc3n2CCC3)CC1	> 10 µM	pIC50 (HEPG2TOX_HILL_SLOPE 0.129, HEPG2TOX_R_SQUARED 0.379, read-out: LUCIFERASE INFECTION ASSAY - IC50): < 5.00
N=C(N)N/N=C/c1ccc(Cl)cc1Cl	5.8 µM	pIC50 (HEPG2TOX_HILL_SLOPE 3.43, HEPG2TOX_R_SQUARED 0.626, PBLUC_HILL_SLOPE 2.34, PBLUC_R_SQUARED 0.812, read-out: LUCIFERASE INFECTION ASSAY - IC50): 5.64
COc1ccc(-c2ccc3ncc(-c4ccc5c(c4)OCO5)n3n2)cc1OC	1.1 µM	pIC50 (HEPG2TOX_HILL_SLOPE 2.06, HEPG2TOX_R_SQUARED 0.96, PBLUC_HILL_SLOPE 2.96, PBLUC_R_SQUARED 0.768, read-out: LUCIFERASE INFECTION ASSAY - IC50): 6.28
CCOC(=O)c1c(NC(=O)COC(=O)c2ccccc2Nc2cccc(C)c2C)sc(C(=O)N(C)C)c1C	> 10 µM	pIC50 [1]: < 5.00
Nc1c(C(=O)c2ccccc2O)cnn1-c1ccccc1C(F)(F)F	3.04 µM	pIC50 (FFLUC_HILL_SLOPE 18.9, FFLUC_R_SQUARED 0.573, PBLUC_HILL_SLOPE 1.34, PBLUC_R_SQUARED 0.647, read-out: LUCIFERASE INFECTION ASSAY - IC50): 6.23
Oc1c(-c2cc(C(F)(F)F)[nH]n2)ccc2ccccc12	4.29 µM	pIC50 (HEPG2TOX_HILL_SLOPE 2.58, HEPG2TOX_R_SQUARED 0.339, PBLUC_HILL_SLOPE 10.9, PBLUC_R_SQUARED 0.613, read-out: LUCIFERASE INFECTION ASSAY - IC50): 5.45
O=C(NNC(=O)c1ccccn1)c1ccc(C2SCCCS2)cc1	> 10 µM	pIC50 (FFLUC_HILL_SLOPE 16.5, FFLUC_R_SQUARED 0.524, PBLUC_HILL_SLOPE 17.5, PBLUC_R_SQUARED 0.078, read-out: LUCIFERASE INFECTION ASSAY - IC50): 5.04
Cc1cc(C(=O)COC(=O)c2ccccc2OCc2ccccc2Cl)c(C)n1CC1CCCO1 (stereo not given)	> 10 µM	pIC50 (HEPG2TOX_HILL_SLOPE 0.0867, HEPG2TOX_R_SQUARED 0.214, read-out: LUCIFERASE INFECTION ASSAY - IC50): < 5.00
COc1cccc(Nc2nccc3nc(-c4cccc(C)c4)[nH]c23)c1	> 10 µM	pIC50 (PBLUC_HILL_SLOPE 2.7, PBLUC_R_SQUARED 0.647, read-out: LUCIFERASE INFECTION ASSAY - IC50): 5.22
C=C(C)C[n+]1cn(C)c(-c2ccccc2)c1-c1ccccc1	> 10 µM	pIC50 (HEPG2TOX_HILL_SLOPE 0.508, HEPG2TOX_R_SQUARED 0.671, PBLUC_HILL_SLOPE 5.71, PBLUC_R_SQUARED 0.631, read-out: LUCIFERASE INFECTION ASSAY - IC50): 5.12
CC(OC(=O)c1c2c(nc3ccccc13)/C(=C/c1cccs1)CCC2)C(=O)Nc1ccccc1C#N (stereo not given)	3.58 µM	pIC50 (FFLUC_HILL_SLOPE 1.58, FFLUC_R_SQUARED 0.34, HEPG2TOX_HILL_SLOPE 8.31, HEPG2TOX_R_SQUARED 0.803, PBLUC_HILL_SLOPE 17.4, PBLUC_R_SQUARED 0.614, read-out: LUCIFERASE INFECTION ASSAY - IC50): 5.50
CC(=O)Nc1ccc(-c2cnc3ccc(-c4cccs4)nn23)cc1	2.75 µM	pIC50 (HEPG2TOX_HILL_SLOPE 1.84, HEPG2TOX_R_SQUARED 0.871, PBLUC_HILL_SLOPE 5.5, PBLUC_R_SQUARED 0.751, read-out: LUCIFERASE INFECTION ASSAY - IC50): 5.74
Cc1nn2c(nc(Sc3nc4ccccc4o3)c3ccccc32)c1/C=N/NC(=O)c1cccc(S(=O)(=O)N2CCOCC2)c1	> 10 µM	pIC50 [1]: < 5.00
CC(C)C(Nc1ccc(C(F)(F)F)cc1Cl)C(=O)Nc1ccc(-n2cncn2)nc1 (stereo not given)	> 10 µM	pIC50 (HEPG2TOX_HILL_SLOPE 1.66, HEPG2TOX_R_SQUARED 0.94, PBLUC_HILL_SLOPE 0.872, PBLUC_R_SQUARED 0.779, read-out: LUCIFERASE INFECTION ASSAY - IC50): 5.67

Structure (SMILES)	IC90	also measured
CCOC(=O)c1c(C)oc2c1cc(OS(=O)(=O)c1ccc(NC(C)=O)cc1)c1ccccc12	9.89 µM	pIC50 (HEPG2TOX_HILL_SLOPE 2.44, HEPG2TOX_R_SQUARED 0.99, PBLUC_HILL_SLOPE 3.26, PBLUC_R_SQUARED 0.643, read-out: LUCIFERASE INFECTION ASSAY - IC50): 5.30
Cc1ccsc1C(=O)Nc1nc2cc3c(cc2s1)OCCO3	> 10 µM	pIC50 (HEPG2TOX_HILL_SLOPE 1.74, HEPG2TOX_R_SQUARED 0.923, PBLUC_HILL_SLOPE 0.323, PBLUC_R_SQUARED 0.422, read-out: LUCIFERASE INFECTION ASSAY - IC50): 6.18
Cc1cc2ccccc2n1CC(=O)NCc1ccc(NC(=O)c2ccco2)cc1	> 10 µM	pIC50 [1]: 5.24
C=CCNc1nc(-c2ccccc2)c(C(=O)OCC)cc1C#N	> 10.7 µM	pIC50 (HEPG2TOX_HILL_SLOPE 2.72, HEPG2TOX_R_SQUARED 0.984, PBLUC_HILL_SLOPE 4, PBLUC_R_SQUARED 0.181, read-out: LUCIFERASE INFECTION ASSAY - IC50): 5.16
CN(C)CCNC(=O)c1ccc(-c2cc(-c3cc4ccccc4s3)cnc2N)cc1	> 7.92 µM	pIC50 [1]: < 5.10
Cc1cc2oc(=O)cc(Cn3cnc4sc(C)c(-c5ccccc5)c4c3=O)c2cc1Cl	> 10 µM	pIC50 (FFLUC_HILL_SLOPE 8.53, FFLUC_R_SQUARED 0.709, PBLUC_HILL_SLOPE 1.77, PBLUC_R_SQUARED 0.508, read-out: LUCIFERASE INFECTION ASSAY - IC50): 5.32
Cc1nccn1Cc1cccc(CNC(=O)/C=C/c2cccc(Cl)c2Cl)c1	> 10 µM	pIC50 [1]: < 5.00
COC(=O)c1cc(OC)c(OC)cc1NS(=O)(=O)c1ccc(Cl)cc1	2.91 µM	pIC50 [1]: 5.55
Cc1cccc(C(=O)Nc2nc3ccc(C)cn3c2C(=O)NCC(C)C)c1	3.75 µM	pIC50 (HEPG2TOX_HILL_SLOPE 9.43, HEPG2TOX_R_SQUARED 0.373, PBLUC_HILL_SLOPE 11.3, PBLUC_R_SQUARED 0.193, read-out: LUCIFERASE INFECTION ASSAY - IC50): 5.51
COc1ccc(-c2cc(C(=O)NNC3=NCCC3)c3c(C)nn(-c4ccccc4)c3n2)cc1	> 10 µM	pIC50 (PBLUC_HILL_SLOPE 16.7, PBLUC_R_SQUARED 0.16, read-out: LUCIFERASE INFECTION ASSAY - IC50): 5.03
C=CC/N=c1\scc(-c2ccc(OC(F)F)cc2)n1/N=C/c1ccc(O)cc1O	> 10 µM	pIC50 (PBLUC_HILL_SLOPE 2.81, PBLUC_R_SQUARED 0.0539, read-out: LUCIFERASE INFECTION ASSAY - IC50): < 5.00
Cc1ccc(N2C(=N)C(=S)N(c3ccc(Cl)c(Cl)c3)C2=O)cc1	> 9.06 µM	pIC50 [1]: < 5.04
CC(C)C(C(=O)Nc1ccc(C#N)cc1)c1ccc(Cl)cc1 (stereo not given)	> 10 µM	pIC50 (HEPG2TOX_HILL_SLOPE 0.183, HEPG2TOX_R_SQUARED 0.415, read-out: LUCIFERASE INFECTION ASSAY - IC50): < 5.00
O=S(=O)(c1c(Cl)cc(Br)cc1Cl)N1CCN(C(=S)NC2CC3CCC2C3)CC1 (stereo not given)	> 10 µM	pIC50 (PBLUC_HILL_SLOPE 16.2, PBLUC_R_SQUARED 0.114, read-out: LUCIFERASE INFECTION ASSAY - IC50): 5.05
N#CC(C#N)=NNc1ccc(F)cc1F	> 16 µM	pIC50 (HEPG2TOX_HILL_SLOPE 0.862, HEPG2TOX_R_SQUARED 0.0964, read-out: LUCIFERASE INFECTION ASSAY - IC50): < 4.80
CC1CCCCC1NC(=O)/C(C#N)=C/C=C/c1ccccc1[N+](=O)[O-] (stereo not given)	> 10 µM	pIC50 (HEPG2TOX_HILL_SLOPE 14.8, 8.85, HEPG2TOX_R_SQUARED 0.251, 0.979, PBLUC_HILL_SLOPE 2.96, PBLUC_R_SQUARED 0.503, read-out: LUCIFERASE INFECTION ASSAY - IC50): 5.07
Clc1ccc(-c2cnc3cnc(-c4ccncc4)cn23)cc1	4.84 µM	pIC50 (PBLUC_HILL_SLOPE 2.25, PBLUC_R_SQUARED 0.741, read-out: LUCIFERASE INFECTION ASSAY - IC50): 5.74
COc1cccc(/C=C2\Oc3c(CN4CCN(C)CC4)c(O)cc(C)c3C2=O)c1	> 8.37 µM	pIC50 [1]: < 5.08
O=C(NNC1c2ccccc2-c2ccccc21)c1ccccc1	> 10 µM	pIC50 [1]: 5.07
Cc1ccc2c(c1)/C(=N\NC(=O)c1nc(Cl)c(Cl)c(N)c1Cl)C(=O)N2	> 10 µM	pIC50 (FFLUC_HILL_SLOPE 3.8, FFLUC_R_SQUARED 0.785, read-out: LUCIFERASE INFECTION ASSAY - IC50): < 5.00
